The assay has as its system L1210. The experiment in a line: Capacity to inhibit tumor cells in vitro using L1210 murine leukemia cells. Type of assay: functional, cell-based. The note with it: Mus musculus.

The results in this text go back to ChEMBL document CHEMBL1125272, “Synthetic approaches to the guanosine and xanthosine analogues 5-amino-3-beta-D-ribofuranosylpyrazolo[3,4-e][1,3]oxazin-7-one and 3-beta-D-ribofuranosylpyrazolo[3,4-e][1,3]oxazine-5,7-dione and studies of their antitumor potential” (J Med Chem, 1991).

As a reminder, the IC50 is the point on the concentration scale where inhibition reaches its midpoint. A high value points to weaker potency in that assay.

Turning to `NC1=NC(=O)C2N=NC([C@@H]3O[C@H](CO)[C@@H](O)[C@H]3O)=C2O1` (some centres not stated), half-maximal inhibition (IC50) was put at 100 µM.
In the case of `O=c1[nH]c(=O)c2[nH]nc([C@@H]3O[C@H](CO)[C@@H](O)[C@H]3O)c2o1`, the midpoint of inhibition, the IC50, lay at 0.2 µM.
